Data set [1] relates to Mycobacteroides chelonae. Kind of data set: Antimycobacterial activity against Mycobacterium chelonae by CLSI method. In kind it is functional.
Data set [2] relates to Mycolicibacterium smegmatis. Kind of data set: Antimycobacterial activity against Mycobacterium smegmatis by CLSI method. The class given is functional.
For data set [3], the system named is Mycobacterium tuberculosis. Kind of data set: Antimycobacterial activity against Mycobacterium tuberculosis H37Ra measured after 7 days by alamar blue assay. In kind it is functional. The settings on record: 168 h. (Alamar Blue is a resazurin reagent that responds to reducing activity.)
Data set [4] deals with Mycobacterium xenopi. As to the kind of experiment: Antimycobacterial activity against Mycobacterium xenopi by CLSI method. The class given is functional.
The subject of data set [5] is Mycobacterium intracellulare. As to the kind of experiment: Antimycobacterial activity against Mycobacterium intracellulare by CLSI method. In kind it is functional.
Data set [6] in a line: Cytotoxicity against human MRC5 SV2 cells measured after 72 hrs by resazurin based fluorescence assay. In kind it is toxicity, cell-based.
The nature of data set [7]: Oral bioavailability in Sprague-Dawley rat. The class given is ADME, organism-based. As to conditions: in vivo.
Data set [8] has as its system Mycolicibacterium smegmatis. Kind of data set: Antimycobacterial activity against Mycobacterium smegmatis MC2 155 after 24 hrs by broth dilution assay. As to conditions: str. MC2 155, 24 h. In kind it is functional.
Data set [9] concerns Mycolicibacterium smegmatis. Kind of data set: Bactericidal activity against Mycobacterium smegmatis MC2 155 assessed as log reduction in bacterial colonies up to 8 times MIC measured after 24 hrs by time-kill assay. In kind it is functional, str. MC2 155.

Values after ≈ are worked out from the molar mass of the structure shown.

In general, MIC refers to the smallest concentration in the dilution series that meets the test's criterion for growth inhibition. A high value points to a less susceptible organism. Broadly, the CC50 is the concentration giving 50% cytotoxicity. As a reminder, the bioavailability is the share of a dose that reaches the circulation, judged against a reference dose that is usually intravenous. Low values mean poor availability, high ones good availability. For orientation: MIC90 means an inhibitory concentration at the 90% level, which refers to growth in some studies and to a panel of isolates in others.

Turning to `COc1c(O)cc2oc3cc(O)c(CC=C(C)C)c(O)c3c(=O)c2c1CC=C(C)C` [MANGOSTIN], the MIC in data set [1] was 3.7 µM (≈ 1.52 µg/mL); in data set [2], 3.7 µM (≈ 1.52 µg/mL); in data set [3], 6.25 µg/mL (≈ 15.2 µM); in [4] it was 3.7 µM (≈ 1.52 µg/mL); in [5], 3.7 µM (≈ 1.52 µg/mL). In [6], this molecule showed a CC50 at 72 h of 7.5 µM.

In the case of `CO[C@H]1/C=C/O[C@@]2(C)Oc3c(C)c(O)c4c(c3C2=O)C2=NC3(CCN(CC(C)C)CC3)NC2=C(NC(=O)/C(C)=C\C=C\[C@H](C)[C@H](O)[C@@H](C)[C@@H](O)[C@@H](C)[C@H](OC(C)=O)[C@@H]1C)C4=O` [RIFABUTIN], the bioavailability in [7] was determined as 20%.

In the case of `NNC(=O)c1ccncc1` [ISONIAZID], the MIC90 in [8] came to 15 µM (≈ 2.06 µg/mL). The Activity in data set [9] was determined as 1.2.

For the origin of these results see ChEMBL document CHEMBL3872220, “Amphiphilic xanthones as a potent chemical entity of anti-mycobacterial agents with membrane-targeting properties” (Eur J Med Chem, 2016).
